Test results published in US11840686B2, “Modulation of prekallikrein (PKK) expression” (Ionis Pharmaceuticals, Inc., priority 2013, dated 2023).
Strand notation (5' to 3'): a small letter for the sugar, then the base; units joined by * are phosphorothioate-linked, units joined directly phosphodiester-linked; [ ] holds rarer units or linkages, { } end groups; capitals alone tell only the bases. e = 2'-O-(2-methoxyethyl) (MOE); [5mC] = 5-methylcytosine; d = 2'-deoxy (DNA)

How the values were obtained:
[1] = test system: human PKK mRNA; assay: Antisense inhibition of human PKK mRNA in HepaRG cells, 5,000 nM (Example 2); assay type: cell-based
Method in brief: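 Percent inhibition of PKK mRNA is reported relative to untreated cells, after adjustment for total RNA by RIBOGREEN. Gapmers of 16–20 nucleosides with 2′-MOE wings were delivered at 5,000 nM by electroporation into HepaRG cells and left for roughly 24 hours before RNA isolation.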

[2] = test system: human PKK mRNA; assay: Dose-dependent antisense inhibition of human PKK in HepaRG cells, 0.19-5.00 uM (Example 5); assay type: cell-based; conditions: for percent inhibition of PKK mRNA, 0.19 μM: 0.19 μM antisense oligonucleotide; for percent inhibition of PKK mRNA, 0.56 μM: 0.56 μM antisense oligonucleotide; for percent inhibition of PKK mRNA, 1.67 μM: 1.67 μM antisense oligonucleotide; for percent inhibition of PKK mRNA, 5.00 μM: 5.00 μM antisense oligonucleotide
Experimental: Cells were plated at a density of 20,000 cells per well and transfected using electroporation with 0.19 μM, 0.56 μM, 1.67 μM, and 5.00 μM concentrations of antisense oligonucleotide. After a treatment period of approximately 16 hours, RNA was isolated from the cells and PKK mRNA levels were measured by quantitative real-time PCR. Human PKK primer probe set RTS3454 was used to measure mRNA levels. PKK mRNA levels were adjusted according to total RNA content, as measured by RIBOGREEN®. The antisense oligonucleotides were tested in a series of experiments that had similar culture conditions.
The half maximal inhibitory concentration (IC50) of each oligonucleotide is also presented.

[3] = Table 8, HepaRG cells, electroporation with 5,000 nM antisense oligonucleotide, approx. 24 hours, PKK mRNA by RT-PCR (RTS3454), relative to untreated control cells
[4] = HepaRG cells, electroporation, approximately 16 hours, Table 40
[5] = 4 point dose response, HepaRG cells, Table 40
[6] = HepaRG cells, electroporation, approximately 16 hours, Table 35
[7] = Table 9 experiment, HepaRG cells, 20,000 cells per well, electroporation with 5,000 nM antisense oligonucleotide, approx. 24 hours, PKK mRNA by RT-PCR (RTS3454), relative to untreated control cells
[8] = Table 10 experiment, HepaRG cells, 20,000 cells per well, electroporation with 5,000 nM antisense oligonucleotide, approx. 24 hours, PKK mRNA by RT-PCR (RTS3454), relative to untreated control cells
[9] = HepaRG cells, electroporation, approximately 16 hours, Table 37
[10] = 4 point dose response, HepaRG cells, Table 37
[11] = HepaRG cells, electroporation, approximately 16 hours, Table 38
[12] = 4 point dose response, HepaRG cells, Table 38
[13] = HepaRG cells, electroporation, 5,000 nM antisense oligonucleotide, approx. 24 hours, primer probe set RTS3454, relative to untreated control cells, Table 12
[14] = Table 13, human PKK mRNA in HepaRG cells, 5-10-5 gapmers
[15] = HepaRG cells, electroporation, approximately 16 hours, Table 36
[16] = 4 point dose response, HepaRG cells, Table 36
[17] = Table 34, HepaRG, electroporation, ~16 h

Substance: 546291 (antisense e[5mC]*eA*eG*eG*eG*d[5mC]*d[5mC]*dA*d[5mC]*dT*d[5mC]*dT*d[5mC]*d[5mC]*d[5mC]*e[5mC]*eA*eA*eG*eA) [compound 546291]
- % inhibition [1, 3]: 81%
- percent inhibition of PKK at 0.19 μM [2, 4]: 22%
- percent inhibition of PKK at 0.56 μM [2, 4]: 32%
- percent inhibition of PKK at 1.67 μM [2, 4]: 34%
- percent inhibition of PKK at 5.00 μM [2, 4]: 72%
- IC50 [2, 5]: 2000 nM

Substance: 546301 (antisense eT*eT*eG*eT*eA*dA*dT*dG*dT*d[5mC]*dT*dG*dA*d[5mC]*dA*eG*eA*eT*eT*eT) [compound 546301]
- % inhibition [1, 3]: 93%
- percent inhibition of PKK at 0.19 μM [2, 6]: 25%
- percent inhibition of PKK at 0.56 μM [2, 6]: 50%
- percent inhibition of PKK at 1.67 μM [2, 6]: 53%
- percent inhibition of PKK at 5.00 μM [2, 6]: 87%
- IC50 ([2]; 4 point dose response, HepaRG cells, Table 35): 800 nM

Substance: 546304 (antisense e[5mC]*eT*eT*eT*eT*dA*dT*dT*dT*dG*dT*dG*dA*dG*dA*eA*eA*eG*eG*eT) [compound 546304]
- % inhibition [1, 7]: 94%
- % inhibition [1, 8]: 86%
- percent inhibition of PKK at 0.19 μM [2, 9]: 0%
- percent inhibition of PKK at 0.56 μM [2, 9]: 6%
- percent inhibition of PKK at 1.67 μM [2, 9]: 51%
- percent inhibition of PKK at 5.00 μM [2, 9]: 71%
- IC50 [2, 10]: 2100 nM

Substance: 546310 (antisense eG*eA*eT*eT*e[5mC]*d[5mC]*d[5mC]*dT*dT*d[5mC]*dT*dG*dA*dG*dA*e[5mC]*eT*eT*eT*eA) [compound 546310]
- % inhibition [1, 7]: 78%
- % inhibition [1, 8]: 67%
- percent inhibition of PKK at 0.19 μM [2, 4]: 0%
- percent inhibition of PKK at 0.56 μM [2, 4]: 36%
- percent inhibition of PKK at 1.67 μM [2, 4]: 56%
- percent inhibition of PKK at 5.00 μM [2, 4]: 80%
- IC50 [2, 5]: 1300 nM

Substance: 546358 (antisense e[5mC]*eT*eG*eA*eG*d[5mC]*dT*dT*dT*dT*d[5mC]*d[5mC]*dA*dT*d[5mC]*eA*e[5mC]*eT*eG*e[5mC]) [compound 546358]
- % inhibition ([1]; HepaRG cells, electroporation, 5,000 nM antisense oligonucleotide, approx. 24 hours, primer probe set RTS3454, relative to untreated control cells, Table 11): 83%
- percent inhibition of PKK at 0.19 μM [2, 11]: 0%
- percent inhibition of PKK at 0.56 μM [2, 11]: 19%
- percent inhibition of PKK at 1.67 μM [2, 11]: 71%
- percent inhibition of PKK at 5.00 μM [2, 11]: 80%
- IC50 [2, 12]: 1300 nM

Substance: 546403 (e[5mC]*e[5mC]*eA*eT*eG*dA*dA*d[5mC]*dA*dT*d[5mC]*d[5mC]*dT*dA*dT*e[5mC]*e[5mC]*eG*eT*eG; antisense) [compound 546403]
- % inhibition [1, 13]: 83%
- percent inhibition of PKK at 0.19 μM [2, 11]: 0%
- percent inhibition of PKK at 0.56 μM [2, 11]: 20%
- percent inhibition of PKK at 1.67 μM [2, 11]: 37%
- percent inhibition of PKK at 5.00 μM [2, 11]: 41%
- IC50 [2, 12]: > 5000 nM

Substance: 546410 (eG*eA*e[5mC]*eT*eT*dT*dG*dG*dG*dT*dT*dT*d[5mC]*dT*dG*e[5mC]*e[5mC]*eA*eA*e[5mC]; antisense) [compound 546410]
- % inhibition [1, 13]: 83%
- percent inhibition of PKK at 0.19 μM [2, 11]: 13%
- percent inhibition of PKK at 0.56 μM [2, 11]: 43%
- percent inhibition of PKK at 1.67 μM [2, 11]: 52%
- percent inhibition of PKK at 5.00 μM [2, 11]: 75%
- IC50 [2, 12]: 1200 nM

Substance: 546412 (eG*eG*e[5mC]*eT*eT*d[5mC]*dA*dA*dT*dA*dT*dT*dG*dA*d[5mC]*eT*eT*eT*eG*eG; antisense) [compound 546412]
- % inhibition [1, 13]: 84%
- percent inhibition of PKK at 0.19 μM [2, 11]: 0%
- percent inhibition of PKK at 0.56 μM [2, 11]: 1%
- percent inhibition of PKK at 1.67 μM [2, 11]: 61%
- percent inhibition of PKK at 5.00 μM [2, 11]: 62%
- IC50 [2, 12]: 2300 nM

Substance: 546429 (eG*e[5mC]*e[5mC]*e[5mC]*eA*d[5mC]*d[5mC]*dA*dA*d[5mC]*dA*dA*dT*d[5mC]*dT*e[5mC]*eT*eG*eG*eT; antisense) [compound 546429]
- % inhibition [1, 13]: 84%
- percent inhibition of PKK at 0.19 μM [2, 11]: 6%
- percent inhibition of PKK at 0.56 μM [2, 11]: 10%
- percent inhibition of PKK at 1.67 μM [2, 11]: 44%
- percent inhibition of PKK at 5.00 μM [2, 11]: 69%
- IC50 [2, 12]: 2300 nM

Substance: 546739 (eA*eT*eT*e[5mC]*eG*dG*dT*dG*dT*d[5mC]*dT*dT*dT*dA*d[5mC]*eT*eG*eG*e[5mC]*eT; antisense) [compound 546739]
- % inhibition [1, 14]: 89%
- percent inhibition of PKK at 0.19 μM [2, 9]: 35%
- percent inhibition of PKK at 0.56 μM [2, 9]: 55%
- percent inhibition of PKK at 1.67 μM [2, 9]: 57%
- percent inhibition of PKK at 5.00 μM [2, 9]: 79%
- IC50 [2, 10]: 600 nM
- percent inhibition of PKK mRNA, 0.19 μM ([2]; HepaRG cells): 4%
- percent inhibition of PKK mRNA, 0.56 μM ([2]; HepaRG cells): 62%
- percent inhibition of PKK mRNA, 1.67 μM ([2]; HepaRG cells): 84%
- percent inhibition of PKK mRNA, 5.00 μM ([2]; HepaRG cells): 86%
- IC50 ([2]; HepaRG cells, 0.19-5.00 μM): 600 nM

Substance: 546753 (e[5mC]*eT*eG*eG*e[5mC]*dT*d[5mC]*dA*d[5mC]*dT*dA*dT*dA*dG*dG*e[5mC]*e[5mC]*e[5mC]*e[5mC]*eA; antisense) [compound 546753]
- % inhibition [1, 14]: 91%
- percent inhibition of PKK at 0.19 μM [2, 15]: 28%
- percent inhibition of PKK at 0.56 μM [2, 15]: 47%
- percent inhibition of PKK at 1.67 μM [2, 15]: 83%
- percent inhibition of PKK at 5.00 μM [2, 15]: 96%
- IC50 [2, 16]: 500 nM
- percent inhibition of PKK mRNA, 0.19 μM ([2]; HepaRG cells): 17%
- percent inhibition of PKK mRNA, 0.56 μM ([2]; HepaRG cells): 31%
- percent inhibition of PKK mRNA, 1.67 μM ([2]; HepaRG cells): 70%
- percent inhibition of PKK mRNA, 5.00 μM ([2]; HepaRG cells): 91%
- IC50 ([2]; HepaRG cells, 0.19-5.00 μM): 900 nM

Substance: 546825 (eG*eT*eA*eT*e[5mC]*dA*d[5mC]*dT*dG*dT*dA*d[5mC]*dT*dA*dG*eT*eT*eT*e[5mC]*e[5mC]; antisense) [compound 546825]
- % inhibition [1, 14]: 96%
- percent inhibition of PKK at 5.00 μM ([2]; HepaRG cells, electroporation, approximately 16 hours, Table 41): 99%
- percent inhibition of PKK at 0.19 0μM ([2]; 0.19 0μM, HepaRG cells, electroporation, approximately 16 hours, Table 41): 38%
- percent inhibition of PKK at 0.56 0μM ([2]; 0.56 0μM, HepaRG cells, electroporation, approximately 16 hours, Table 41): 82%
- IC50 ([2]; 4 point dose response, HepaRG cells, Table 41): 200 nM
- percent inhibition of PKK at 0.19 μM [2, 17]: 46%
- percent inhibition of PKK at 0.56 μM [2, 17]: 73%
- percent inhibition of PKK at 1.67 μM [2, 17]: 86%
- percent inhibition of PKK at 5.00 μM [2, 17]: 88%
- IC50 ([2]; Table 34, PKK mRNA, HepaRG, electroporation, ~16 h): 200 nM

Substance: 546826 (eA*eG*eT*eA*eT*d[5mC]*dA*d[5mC]*dT*dG*dT*dA*d[5mC]*dT*dA*eG*eT*eT*eT*e[5mC]; antisense) [compound 546826]
- % inhibition [1, 14]: 90%
- percent inhibition of PKK at 0.19 μM [2, 15]: 17%
- percent inhibition of PKK at 0.56 μM [2, 15]: 40%
- percent inhibition of PKK at 1.67 μM [2, 15]: 87%
- percent inhibition of PKK at 5.00 μM [2, 15]: 97%
- IC50 [2, 16]: 700 nM
